Our source for the T/C values is PubChem BioAssay AID256 (DTP/NCI, 2004).

“And” between values parts separate entries of the source, which are not always exact repeats. Identical values can stand only once. Inconclusive results and toxic doses are left out.

This assay concerns CD2F1 mice, L1210 leukemia ip, survival T/C. The experiment in a line: NCI In Vivo Anticancer Drug Screen. Data for tumor model L1210 Leukemia (intraperitoneal) in CD2F1 (CDF1) mice. Particulars: higher = longer survival. Summed up:
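Ratio T/C, where T is the treated-group value and C the vehicle-dosed control value, from mice implanted with a transplantable tumor.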

Setting [1] is: endpoint: mean survival time, dose: 200.0 mg/kg/injection, schedule: Q01DX009 (ip), vehicle: saline with Tween-80.
[2] abbreviates: endpoint: mean survival time, dose: 50.0 mg/kg/injection, schedule: Q04DX002 (ip), vehicle: saline with Tween-80.
[3] abbreviates: endpoint: mean survival time, dose: 100.0 mg/kg/injection, schedule: Q04DX002 (ip), vehicle: saline with Tween-80.
The mark [4] stands for this setting: endpoint: mean survival time, dose: 200.0 mg/kg/injection, schedule: Q04DX002 (ip), vehicle: saline with Tween-80.
Where [5] appears, read: endpoint: mean survival time, dose: 100.0 mg/kg/injection, schedule: Q04DX003 (ip), vehicle: saline with Tween-80.
[6] abbreviates: endpoint: mean survival time, dose: 200.0 mg/kg/injection, schedule: Q04DX003 (ip), vehicle: saline with Tween-80.
[7] abbreviates: endpoint: mean survival time, dose: 3.12 mg/kg/injection, schedule: Q01DX009 (ip), vehicle: saline with Tween-80.
[8] abbreviates: endpoint: mean survival time, dose: 6.25 mg/kg/injection, schedule: Q01DX009 (ip), vehicle: saline with Tween-80.
The mark [9] stands for this setting: endpoint: mean survival time, dose: 12.5 mg/kg/injection, schedule: Q01DX009 (ip), vehicle: saline with Tween-80.
Where [10] appears, read: endpoint: mean survival time, dose: 25.0 mg/kg/injection, schedule: Q01DX009 (ip), vehicle: saline with Tween-80.
[11] abbreviates: endpoint: mean survival time, dose: 50.0 mg/kg/injection, schedule: Q01DX009 (ip), vehicle: saline with Tween-80.
Setting [12] is: endpoint: mean survival time, dose: 100.0 mg/kg/injection, schedule: Q01DX009 (ip), vehicle: saline with Tween-80.
[13] abbreviates: endpoint: mean survival time, dose: 400.0 mg/kg/injection, schedule: Q01DX009 (ip), vehicle: saline with Tween-80.

As for `COc1cc(-c2nc(-c3ccc(N=Cc4ccc(N(CCCOS(C)(=O)=O)CCCOS(C)(=O)=O)cc4)cc3)cs2)ccc1OCc1ccccc1`, the T/C was 91 % of control (endpoint: mean survival time, dose: 100.0 mg/kg/injection, schedule: Q01DX001 (ip), vehicle: saline with Tween-80); 95 % of control (endpoint: mean survival time, dose: 200.0 mg/kg/injection, schedule: Q01DX001 (ip), vehicle: saline with Tween-80); 86 % of control under setting [1]; 89 % of control (endpoint: mean survival time, dose: 400.0 mg/kg/injection, schedule: Q01DX001 (ip), vehicle: saline with Tween-80).
As to `Cc1ccnc(N/C=C/c2cc[n+](C)cc2)c1`, the T/C is 105 % of control (endpoint: mean survival time, dose: 75.0 mg/kg/injection, schedule: Q01DX001 (ip), vehicle: saline); 111 % of control (endpoint: mean survival time, dose: 150.0 mg/kg/injection, schedule: Q01DX001 (ip), vehicle: saline); 114 % of control (endpoint: mean survival time, dose: 300.0 mg/kg/injection, schedule: Q01DX001 (ip), vehicle: saline).
Take `C(=C\c1nnnn1C12CC3CC(CC(C3)C1)C2)/c1ccccc1`: the T/C is 104 % of control (endpoint: mean survival time, dose: 100.0 mg/kg/injection, schedule: Q01DX001 (ip), vehicle: saline); 104 % of control (endpoint: mean survival time, dose: 200.0 mg/kg/injection, schedule: Q01DX001 (ip), vehicle: saline); 96 % of control (endpoint: mean survival time, dose: 400.0 mg/kg/injection, schedule: Q01DX001 (ip), vehicle: saline).
Take `CCN=C(N)C(N)=NCC` (tested in a mixture with another compound): the T/C reads like this: (endpoint: mean survival time, dose: 25.0 mg/kg/injection, schedule: Q04DX002 (ip), vehicle: saline with Tween-80) 98 % of control; under setting [2], 98 % of control; under setting [3], 93 % of control and 98 % of control; under setting [4], 96 % of control and 87 % of control; (endpoint: mean survival time, dose: 400.0 mg/kg/injection, schedule: Q04DX002 (ip), vehicle: saline with Tween-80) 93 % of control.
As for `O=C(Nc1ccc(C2=NCCCN2)cc1)c1ccc(NC(=O)c2ccc(C3=NCCCN3)cc2)cc1`, the T/C was 95 % of control (endpoint: mean survival time, dose: 1.0 mg/kg/injection, schedule: Q01DX008 (iv), vehicle: other); 107 % of control (endpoint: mean survival time, dose: 2.0 mg/kg/injection, schedule: Q01DX008 (iv), vehicle: other); 189 % of control (endpoint: mean survival time, dose: 4.0 mg/kg/injection, schedule: Q01DX008 (iv), vehicle: other).
Consider `Cc1nc(/N=C(\N)Nc2ccc(Cl)c(Cl)c2)[nH]c(=O)c1Cc1ccccc1`, for which the T/C is, setting by setting: under setting [5], 95 % of control; under setting [6], 88 % of control; (endpoint: mean survival time, dose: 400.0 mg/kg/injection, schedule: Q04DX003 (ip), vehicle: saline with Tween-80) 102 % of control.
`ClC1=C(Cl)C(Cl)=C(Cl)C1=Cc1ccccc1`: the T/C is, setting by setting: under setting [7], 101 % of control; under setting [8], 104 % of control; under setting [9], 105 % of control; under setting [10], 106 % of control; under setting [11], 105 % of control.
Turning to `C=CCOC(=O)Oc1ccccc1Cl`, the T/C is 102 % of control under setting [12], 98 % of control under setting [5] and 95 % of control under setting [6].
With `NC(=O)c1n[nH]c(C2OC(COP(=O)(O)O)C(O)C2O)n1` (stereo not drawn), the T/C is, setting by setting: (endpoint: mean survival time, dose: 12.5 mg/kg/injection, schedule: Q01DX005 (ip), vehicle: water) 100 % of control; (endpoint: mean survival time, dose: 25.0 mg/kg/injection, schedule: Q01DX005 (ip), vehicle: water) 100 % of control; (endpoint: mean survival time, dose: 50.0 mg/kg/injection, schedule: Q01DX005 (ip), vehicle: water) 96 % of control; (endpoint: mean survival time, dose: 100.0 mg/kg/injection, schedule: Q01DX005 (ip), vehicle: water) 97 % of control; (endpoint: mean survival time, dose: 200.0 mg/kg/injection, schedule: Q01DX005 (ip), vehicle: water) 96 % of control.
Turning to `N#CC(/C=C/c1ccccc1)Nc1ccc(CCc2ccc(NC(C#N)/C=C/c3ccccc3)cc2)cc1` (stereo not drawn), the T/C runs as follows: under setting [12], 94 % of control; under setting [1], 90 % of control; under setting [13], 100 % of control.
Take `Nc1nc(N)c2cc(CNc3ccc(C(=O)NC(CC(=O)O)CC(=O)O)cc3)ccc2n1`: the T/C (endpoint: mean survival time, dose: 25.0 mg/kg/injection, schedule: Q01DX009 (ip), vehicle: Klucel (hydroxypropylcellulose) (HPC)) is 160 % of control; the T/C (endpoint: mean survival time, dose: 50.0 mg/kg/injection, schedule: Q01DX009 (ip), vehicle: Klucel (hydroxypropylcellulose) (HPC)) was 162 % of control and 206 % of control; the T/C (endpoint: mean survival time, dose: 200.0 mg/kg/injection, schedule: Q01DX009 (ip), vehicle: Klucel (hydroxypropylcellulose) (HPC)) is 114 % of control and 103 % of control; the T/C (endpoint: mean survival time, dose: 400.0 mg/kg/injection, schedule: Q01DX009 (ip), vehicle: Klucel (hydroxypropylcellulose) (HPC)) is 96 % of control and 98 % of control.
In the case of `CCN(CC)Cc1cc2[nH]c3c4ccc(Cl)cc4ncc3c2cc1OC`, the T/C is 102 % of control (endpoint: median survival time, dose: 6.25 mg/kg/injection, schedule: Q01DX009 (ip), vehicle: saline with Tween-80); 102 % of control (endpoint: median survival time, dose: 12.5 mg/kg/injection, schedule: Q01DX009 (ip), vehicle: saline with Tween-80); 103 % of control (endpoint: median survival time, dose: 25.0 mg/kg/injection, schedule: Q01DX009 (ip), vehicle: saline with Tween-80); 111 % of control (endpoint: median survival time, dose: 50.0 mg/kg/injection, schedule: Q01DX009 (ip), vehicle: saline with Tween-80).
`CCN(CC)CCC(CN(C)C)C(C)=O` (stereo not drawn): the T/C reads like this: (endpoint: mean survival time, dose: 75.0 mg/kg/injection, schedule: Q01DX001 (ip), vehicle: other) 106 % of control; (endpoint: mean survival time, dose: 150.0 mg/kg/injection, schedule: Q01DX001 (ip), vehicle: other) 103 % of control; (endpoint: mean survival time, dose: 300.0 mg/kg/injection, schedule: Q01DX001 (ip), vehicle: other) 96 % of control.
Regarding `C=C1C(=O)C23[C@H](O)C1CC[C@H]2[C@]12COC3(O)[C@@H](O)[C@@H]1C(C)(C)CC[C@@H]2O`, the T/C runs as follows: (endpoint: mean survival time, dose: 1.56 mg/kg/injection, schedule: Q01DX009 (ip), vehicle: saline with Tween-80) 97 % of control and 111 % of control; under setting [7], 102 % of control and 103 % of control; (endpoint: mean survival time, dose: 4.5 mg/kg/injection, schedule: Q01DX009 (ip), vehicle: Klucel (hydroxypropylcellulose) (HPC)) 93 % of control and 105 % of control and 107 % of control; under setting [8], 96 % of control and 102 % of control; (endpoint: mean survival time, dose: 9.0 mg/kg/injection, schedule: Q01DX009 (ip), vehicle: Klucel (hydroxypropylcellulose) (HPC)) 95 % of control and 97 % of control; under setting [9], 97 % of control and 105 % of control. Moreover, the T/C is 93 % of control and 101 % of control and 107 % of control (endpoint: mean survival time, dose: 18.0 mg/kg/injection, schedule: Q01DX009 (ip), vehicle: Klucel (hydroxypropylcellulose) (HPC)); 102 % of control and 105 % of control under setting [10]; 90 % of control and 107 % of control (endpoint: mean survival time, dose: 36.0 mg/kg/injection, schedule: Q01DX009 (ip), vehicle: Klucel (hydroxypropylcellulose) (HPC)).
Turning to `CC1(C)C2CC=C(CCOC(=S)S)C1C2.[Ni]` (stereo not drawn), the T/C is, setting by setting: under setting [10], 96 % of control; under setting [11], 90 % of control; under setting [12], 96 % of control; under setting [5], 91 % of control; under setting [6], 93 % of control.
On to `CCCCCCCCN(C)Cc1cc(C(C)(C)C)cc(-c2ccccc2)c1O`, for which the T/C is 96 % of control under setting [12], 96 % of control under setting [1] and 96 % of control under setting [13].
In the case of `O=C1C(Cl)=C(NCc2ccccc2Cl)C(=O)c2ccccc21`, the T/C (endpoint: mean survival time, dose: 12.5 mg/kg/injection, schedule: Q01DX001 (ip), vehicle: saline with Tween-80) was 108 % of control and the T/C (endpoint: mean survival time, dose: 25.0 mg/kg/injection, schedule: Q01DX001 (ip), vehicle: saline with Tween-80) is 108 % of control.
For `CN1C(=O)C2(Cc3cn(C45CC67SSC(CO)(C(=O)N6C4Nc4ccccc45)N(C)C7=O)c4ccccc34)SSC1(CO)C(=O)N2C` (stereo not drawn), the T/C by setting is: (endpoint: mean survival time, dose: 0.31 mg/kg/injection, schedule: Q01DX009 (ip), vehicle: Klucel (hydroxypropylcellulose) (HPC)) 93 % of control; (endpoint: mean survival time, dose: 0.62 mg/kg/injection, schedule: Q01DX009 (ip), vehicle: Klucel (hydroxypropylcellulose) (HPC)) 100 % of control; (endpoint: mean survival time, dose: 1.25 mg/kg/injection, schedule: Q01DX009 (ip), vehicle: Klucel (hydroxypropylcellulose) (HPC)) 100 % of control.
In the case of `CC1[N-]CCC[N-]CCC[N-]C(C)C2CCCC1[N-]2.[Ni+2].[O-][Cl+3]([O-])([O-])O` (stereo not drawn), the T/C under setting [2] is 104 % of control; the T/C under setting [3] was 101 % of control and 104 % of control; the T/C under setting [4] was 93 % of control.
